Measurements taken from PubChem BioAssay (NCI).
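All cell lines were grown in 96-well plates and treated with compound for 48 hours. TGI: total growth inhibition.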

Assays:
Assay in all cases: inhibition of tumour cell growth, NCI panel, 48 h
[1] = system: KM12 colon
[2] = system: HOP-92 NSCLC
[3] = system: MCF7 breast
[4] = system: EKVX NSCLC
[5] = system: A498 renal
[6] = system: SW-620 colon
[7] = system: SF-268 CNS
[8] = system: ACHN renal
[9] = system: MDA-MB-435
[10] = system: NCI-H522 lung
[11] = system: TK-10 renal
[12] = system: NCI/ADR-RES ovarian
[13] = system: HOP-62 NSCLC
[14] = system: PC-3 prostate
[15] = system: DU-145 prostate
[16] = system: MDA-N
[17] = system: CCRF-CEM leukemia
[18] = system: SF-539 CNS
[19] = system: HCC-2998 colon
[20] = system: MALME-3M melanoma

For COc1cc(NS(C)(=O)=O)ccc1Nc1cc(C)[nH]c2ccc3nccc3c12, the TGI [1] was > 100 µM, the TGI [2] was > 100 µM and the TGI [3] was > 100 µM. For the same compound, the TGI [4] was > 100 µM, the TGI [5] was > 100 µM and the TGI [6] was > 100 µM. The TGI [7] was > 100 µM, the TGI [8] was > 100 µM and the TGI [9] was > 100 µM. For the same compound, the TGI [10] was > 100 µM, the TGI [11] was > 100 µM and the TGI [12] was > 100 µM. For the same compound, the TGI [13] was > 100 µM, the TGI [14] was > 100 µM and the TGI [15] was > 100 µM. For the same compound, the TGI [16] was > 100 µM.

COc1ccc(NC(=O)CC(=O)N2N=C(N3c4ccccc4Sc4ccccc43)CC2c2ccccc2)cc1 (stereo not drawn) was tested, and the TGI [1] was > 100 µM, the TGI [2] was > 100 µM and the TGI [3] was > 100 µM. For the same compound, the TGI [4] was > 100 µM, the TGI [6] was > 100 µM and the TGI [7] was 82.9 µM. The TGI [8] was > 100 µM, the TGI [9] was > 100 µM and the TGI [10] was > 100 µM. For the same compound, the TGI [17] was > 100 µM, the TGI [11] was > 100 µM and the TGI [18] was > 100 µM. For the same compound, the TGI [12] was > 100 µM, the TGI [13] was > 100 µM and the TGI [14] was > 100 µM. For the same compound, the TGI [19] was > 100 µM and the TGI [15] was > 100 µM.

In the case of CC1=NN(c2cccc(Cl)c2)C2(SCC(=O)N2c2nc3ccccc3s2)/C1=C\c1ccccc1O (stereo not drawn), the TGI [1] is reported as 45.1 µM, the TGI [2] is reported as 46.1 µM and the TGI [3] is reported as > 100 µM. For the same compound, the TGI [4] was > 100 µM, the TGI [5] was 38.4 µM and the TGI [6] was 35.8 µM. The TGI [7] was 64.7 µM, the TGI [8] was 49 µM and the TGI [9] was 60.2 µM. For the same compound, the TGI [10] was 42.4 µM, the TGI [17] was > 100 µM and the TGI [11] was > 100 µM. The TGI [18] was > 100 µM, the TGI [12] was 55.5 µM and the TGI [13] was 54.7 µM. It also gave a TGI [14] of 61.1 µM, a TGI [19] of 42 µM and a TGI [15] of 42.2 µM. For the same compound, the TGI [16] was 53.4 µM.

With CSC(=S)N(C)C the TGI [1] was > 100 µM, the TGI [2] was > 100 µM and the TGI [3] was > 100 µM. The TGI [4] was > 100 µM, the TGI [5] was > 100 µM and the TGI [6] was > 100 µM. For the same compound, the TGI [7] was > 100 µM, the TGI [9] was > 100 µM and the TGI [10] was > 100 µM. The TGI [17] was > 100 µM, the TGI [20] was > 100 µM and the TGI [11] was > 100 µM. For the same compound, the TGI [18] was > 100 µM, the TGI [12] was > 100 µM and the TGI [13] was > 100 µM. For the same compound, the TGI [15] was > 100 µM and the TGI [16] was > 100 µM.

In the case of COc1cccc2c1OC1(C=C2)Oc2ccccc2C(=O)N1C (stereo not drawn), the TGI [1] is reported as > 100 µM, the TGI [2] is reported as 98.2 µM and the TGI [3] is reported as > 100 µM. For the same compound, the TGI [4] was > 100 µM, the TGI [5] was 57.4 µM and the TGI [6] was > 100 µM. The TGI [7] was > 100 µM, the TGI [8] was > 100 µM and the TGI [9] was 59.8 µM. For the same compound, the TGI [10] was > 100 µM, the TGI [17] was 46.2 µM and the TGI [11] was > 100 µM. The TGI [12] was 26.9 µM, the TGI [13] was > 100 µM and the TGI [14] was > 100 µM. For the same compound, the TGI [19] was 77.8 µM, the TGI [15] was > 100 µM and the TGI [16] was 44.9 µM.

For Cc1cc(C(=O)CCCCOc2ccc(C3=NCCO3)cc2)c(C)n1C, the TGI [1] was > 100 µM, the TGI [3] was > 100 µM and the TGI [4] was > 100 µM. The TGI [5] was 86.8 µM, the TGI [6] was > 100 µM and the TGI [7] was > 100 µM. For the same compound, the TGI [8] was > 100 µM, the TGI [9] was 76.6 µM and the TGI [10] was > 100 µM. The TGI [17] was 46.6 µM, the TGI [20] was > 100 µM and the TGI [11] was > 100 µM. For the same compound, the TGI [12] was > 100 µM, the TGI [13] was > 100 µM and the TGI [14] was 59.7 µM. It also gave a TGI [15] of 79.8 µM and a TGI [16] of 88 µM.

In the case of Oc1ccc([I+]c2ccccc2)cc1O, the TGI [1] is reported as 70.7 µM, the TGI [2] is reported as 28.9 µM and the TGI [4] is reported as > 100 µM. For the same compound, the TGI [5] was > 100 µM, the TGI [6] was 37.1 µM and the TGI [7] was > 100 µM. The TGI [8] was > 100 µM, the TGI [9] was 66.2 µM and the TGI [10] was > 100 µM. For the same compound, the TGI [17] was 60.4 µM, the TGI [20] was > 100 µM and the TGI [11] was > 100 µM. The TGI [18] was 91.2 µM, the TGI [12] was > 100 µM and the TGI [13] was > 100 µM. For the same compound, the TGI [14] was 64.1 µM, the TGI [19] was 64.2 µM and the TGI [15] was > 100 µM. For the same compound, the TGI [16] was > 100 µM.

With CCOC(=O)c1c(C)nc2c3ccccc3c(C#N)c(C)n12 the TGI [1] was > 100 µM, the TGI [2] was > 100 µM and the TGI [3] was > 100 µM. For the same compound, the TGI [4] was > 100 µM, the TGI [5] was > 100 µM and the TGI [6] was > 100 µM. The TGI [8] was > 100 µM, the TGI [9] was > 100 µM and the TGI [10] was 89.3 µM. The TGI [17] was > 100 µM, the TGI [11] was > 100 µM and the TGI [18] was > 100 µM. The TGI [12] was > 100 µM, the TGI [13] was 70.7 µM and the TGI [14] was > 100 µM. The TGI [19] was > 100 µM and the TGI [15] was > 100 µM.

Cc1cc2c3c(nc4ccccc42)C(=O)c2ccccc2-c3n1 was tested, and the TGI [1] was 14.5 µM, the TGI [2] was > 100 µM and the TGI [3] was 51.2 µM. The TGI [4] was > 100 µM, the TGI [5] was 42.3 µM and the TGI [6] was 35.9 µM. The TGI [7] was > 100 µM, the TGI [8] was > 100 µM and the TGI [9] was 3.11 µM. For the same compound, the TGI [10] was 14.4 µM, the TGI [17] was 73.3 µM and the TGI [11] was > 100 µM. The TGI [18] was 61.2 µM, the TGI [12] was 38.5 µM and the TGI [13] was 23.5 µM. The TGI [14] was 80.9 µM, the TGI [19] was 53.9 µM and the TGI [15] was > 100 µM.

COc1cccc(CCCNC(=O)Cc2cc(OC)c(OC)cc2CO)c1 was tested, and the TGI [1] was > 100 µM, the TGI [2] was > 100 µM and the TGI [4] was > 100 µM. The TGI [5] was > 100 µM, the TGI [6] was > 100 µM and the TGI [8] was > 100 µM. For the same compound, the TGI [9] was > 100 µM, the TGI [17] was > 100 µM and the TGI [20] was > 100 µM. The TGI [11] was > 100 µM, the TGI [12] was > 100 µM and the TGI [13] was > 100 µM. For the same compound, the TGI [14] was > 100 µM, the TGI [19] was > 100 µM and the TGI [15] was > 100 µM. The TGI [16] was > 100 µM.

c1c[nH]c(-c2ccc(-c3ccc[nH]3)c3nsnc23)c1 was tested, and the TGI [1] was > 100 µM, the TGI [2] was > 100 µM and the TGI [3] was > 100 µM. For the same compound, the TGI [4] was > 58.4 µM, the TGI [5] was > 100 µM and the TGI [6] was > 100 µM. The TGI [7] was > 100 µM, the TGI [8] was > 86.8 µM and the TGI [9] was > 70.9 µM. For the same compound, the TGI [10] was > 100 µM, the TGI [17] was > 35.3 µM and the TGI [11] was > 100 µM. The TGI [18] was > 76.8 µM, the TGI [12] was > 93.2 µM and the TGI [13] was > 80.1 µM. For the same compound, the TGI [14] was > 100 µM, the TGI [19] was > 100 µM and the TGI [15] was 98.3 µM. The TGI [16] was > 100 µM.

With CN(C)C1(N(C)C)Oc2c(c(=O)n(C)c(=O)n2C)C(c2ccc(Br)cc2)C1(F)F (stereo not drawn) the TGI [1] was > 100 µM, the TGI [2] was > 100 µM and the TGI [3] was > 100 µM. For the same compound, the TGI [4] was > 100 µM, the TGI [5] was > 100 µM and the TGI [6] was > 100 µM. The TGI [7] was > 100 µM, the TGI [8] was > 100 µM and the TGI [9] was > 100 µM. For the same compound, the TGI [17] was > 100 µM, the TGI [11] was > 100 µM and the TGI [12] was > 100 µM. The TGI [13] was > 100 µM, the TGI [14] was > 100 µM and the TGI [19] was > 100 µM. For the same compound, the TGI [15] was > 100 µM.

In the case of CN(C)c1ccc(C(=N/N=C2\C(=O)Nc3ccccc32)c2ccc(N(C)C)cc2)cc1, the TGI [1] is reported as 33.1 µM, the TGI [2] is reported as 51.2 µM and the TGI [3] is reported as 2.72 µM. For the same compound, the TGI [4] was > 54.4 µM, the TGI [5] was 16.8 µM and the TGI [6] was > 100 µM. The TGI [7] was 29.2 µM, the TGI [8] was 40.8 µM and the TGI [9] was 0.0567 µM. The TGI [10] was 0.649 µM, the TGI [17] was 13.2 µM and the TGI [20] was > 52.1 µM. It also gave a TGI [11] of 28.2 µM, a TGI [18] of 3.72 µM and a TGI [12] of 3.59 µM. The TGI [13] was 41.9 µM, the TGI [14] was 40 µM and the TGI [19] was 17.5 µM. The TGI [15] was 17.5 µM.
